Source: patent US20150376216A1, “SUGAR-ANALOG PHOSPHORUS-CONTAINING HETEROCYCLES HAVING AN ANTI-METASTATIC ACTIVITY” (CENTRE NATIONAL DE LA RECHERCHE SCIENTIRIQUE, priority 2013, published 2015)
Where two headings read alike, the source gives them in different places.

Experiments:
[1] = Acute in vivo toxicity; details: healthy mice; 50, 25, 10, 5 and 1 mg/kg; maximum dose 50 mg/kg
Procedure: Studies of the acute toxicity of compounds 3.48a and 4.2a were performed on healthy mice for a concentration range of 50, 25, 10, 5 and 1 mg/kg.

[2] = tested on: Gli4 GBM stem cells; assay: Boyden chamber migration test, Gli4; format: cell-based, human; details: 24 hours, read-out: Inhibition constant Ki, migration
Procedure: (§1) The effects of compounds 3.48a, 4.2a and 5.6d on the migration of cancer cells (human glioblastoma line SNB75 or primary culture of human glioblastoma Gli4F1, on the one hand, and MDAMB 435 and A431 on the other hand), were determined by performing a standard migration test in a Boyden chamber (treatment of the cells for 24 hours).
(§2) For this test, the compounds were dissolved in vitro and used in culture in 0.3% of DMSO. The interior of the inserts was covered with the extracellular matrix protein studied (laminin-1, vitronectin or fibronectin). The cells pretreated at various concentrations and untreated (controls) were deposited in the inserts covered with said protein at a rate of 50 000 cells/500 μl/insert in a medium containing 0.1% of BSA (bovine serum albumin).
(§3) 500 μl of medium containing 10% fetal calf serum were then placed in each well of a Companion plate so as to allow the formation of a chemotactic gradient across the porous membrane. After 24 hours of migration in the incubator at 37° C., the supernatent was removed and the inserts rinsed with PBS on each face. The cells were counted with a microscope (Zeiss Axiophot, magnification ×200). This gives a percentage of migration relative to the untreated cells.
(§4) Table 2 below gives, for compound 3.48a, the values for the inhibition constants (Ki) for the migration of a human GBM line (SNB75), of GBM stem cell lines (Gli4, Gli7) and of a breast cancer line MDAMB231, in a Boyden chamber, on various extracellular matrix protein supports. Tables 3 and 4 below give, for compounds 4.2a and 5.6d, the values of the inhibition constants (Ki) for the migration of a melanoma line (MDAMB-435) or of an epidermoid cancer line (A431), in a Boyden chamber, on various extracellular matrix protein supports. The inhibitory effect depends on the line and the stem cells used, but also on the extracellular matrix protein support used.

[3] = tested on: SNB75 human GBM line; assay: Boyden chamber migration test, SNB75; format: cell-based; details: for Ki: SNB75, 24 hours, read-out: Inhibition constant Ki, migration
Procedure: as §1, §2, §3, §4

[4] = Solubility / formulation behaviour; format: physicochemical
Procedure: The following two formulations are particularly suited to compounds 3.48a and 4.2a and allow their in vivo administration, at concentrations of about 20-100 mg/kg, intravenously: […]

[5] = tested on: Gli7 GBM stem cells; assay: Boyden chamber migration test, Gli7; format: cell-based, human; details: 24 hours, read-out: Inhibition constant Ki, migration
Procedure: as §1, §2, §3, §4

[6] = tested on: GBM line C6; assay: Boyden chamber migration test, C6; format: cell-based, rat; details: various extracellular matrix substrates
[7] = tested on: Gli4 cells; assay: Gli4 intracranial model; format: in vivo, mice
Procedure: 2×10^5 Gli4 cells were injected into a group of mice (right striatal injection, injection coordinates: bregma 0 L-L: L: −1.5 mm P: −3.5-2.5). The mice were immediately treated for four weeks at a rate of three injections at 10 mg/kg of compound 3.48a per week (formulation 1, group B) or using 100 μl of NaCl according to the same treatment protocol (group A) and sacrificed after ten weeks.
In the group of control mice (group A), dispersed Gli4 cells are observed, which migrated along the corpus callosum and passed into the other hemisphere. […] This migration reflects migration along the white matter, as observed in human glioblastoma multiformes (dispersion as an intra-fascicular growth along the white matter).

[8] = tested on: SNB75 cells; assay: SNB75 subcutaneous model; format: in vivo, mice
Procedure: Nude female mice 4-5 weeks old with an average weight of […], supplied by the R. Janvier breeding center, were used. The mice were kept in a pathogen-free environment and with food and water present ad libitum. The experiments were commenced after one week of acclimatizing the mice to their new environment.
A suspension of 5×10^6 SNB75 cells in 100 μl of sterile PBS (phosphate-buffered saline, provided by Fisher) was injected into each mouse (subcutaneous administration without anesthesia). Once the mice presented tumors with volumes of between […], groups were formed so that each of them contained an equivalent number of large, medium and small tumors. The protocol was conducted with five groups of seven mice. The five groups of mice were treated using one of the five formulations described below:
Group A: Treatment by injection of 100 μl of NaCl (control N° 1).
Group B: Treatment with compound 3.48a at a rate of 10 mg/kg with volumes of 100 to 150 μl of formulation 2 according to the weight of the mice.
Group C: Treatment with compound 3.48a at a rate of 5 mg/kg with volumes of 100 to 150 μl of formulation 2 according to the weight of the mice.
Group D: Treatment with temozolomide at a rate of 20 mg/kg with volumes of 100 to 150 μl according to the weight of the mice. Temozolomide is a comparative anticancer active principle sold under the name Temodal by the laboratory Schering Plough. It is indicated for treating glioblastoma multiforme.
Group E: Treatment by injection of 100 to 150 μl according to the weight of the mice of formulation 2 not containing compound 3.48a (control N° 2).
Each batch was treated by intravenous injection into the caudal vein of 100 to 150 μl of solution (precision syringe and G25X1 needle ultrafine wall, VWR). Three injections per week for four weeks were performed. The mice were weighed at each injection. The sizes of the tumors were measured twice a week for a period of four weeks. The mice were sacrificed after four weeks and the tumors and organs (liver, kidney, spleen, brain, intestine, heart, muscles) were removed. A histological analysis was performed on these organs.

[9] = tested on: C6 glioblastoma line; assay: MTT antiproliferative test, C6; format: cell-based; details: Rattus norvegicus, read-out: IC50, inhibition of proliferation
Procedure: (§5) Several cancer cell lines were used for the in vivo or in vitro biological tests: • SNB75 is a human glioblastoma line derived from a primary culture, i.e. derived from a primary malignant cancer tumor. It forms part of the panel of 59 cancer lines referenced by the NCI. Its Cosmic reference number published by the Welcome Trust Sanger Institute is 905982. This line was supplied by a person (M.D. Ph.D of the department of “Radiation Oncology”, Stanford University Medical Center). It was cultured in Ham's F-12 and DMEM (1/1) supplemented with 10% fetal bovine serum. The experiments were performed with cells in the exponential growth phase. • Gli4 (or Gli4F11) and Gli7 are cultures of cancer strain cells derived from human glioblastomas (primary cultures). These lines are CD133^+, CD15^+ which are multipotent and tumorigenic in animals. They were established by J. P. Hugnot (INM INSERM U-1051 Eq. 4), and described in Guichet, P. O. et al, Glia 2013, 61(2), 225-239; • C6 is a rat glioblastoma line. It is referenced in the ATCC under the reference CCL-107. • MDAMB-435 is a melanoma line derived from a mammary melanoma. It forms part of the panel of 59 cancer lines referenced by the NCI. It is referenced at the ATCC under the reference HTB-129. It was cultured in Ham's F-12 and DMEM (1/1) supplemented with 10% fetal bovine serum. […]

[10] = tested on: CaCo2; assay: MTT antiproliferative test, CaCo2; format: cell-based; details: Homo sapiens, Caco-2, read-out: IC50, inhibition of proliferation
Procedure: (§6) The lines MDAMB-435 and A431 are seeded at a density of 3000 cells per well in 96-well plates. After 24 hours, compounds 4.2a and 5.6d resuspended in 100% DMSO are added at concentrations of 0-0.001-0.010-0.1-1-10-50 μM for a final constant amount of DMSO of 0.3%. The cultures are maintained for a further 72 hours and an MTT colorimetric test is then performed. 100 μl of a solution of MTT at 5 mg/ml in PBS are added to the culture medium, which is left to incubate for 3 hours. The culture medium is removed and the cells are lyzed by adding 100 μL of a 4 mM HCl solvent, 0.1% Nondet P-40 (NP40) in isopropanol. The yellow tetrazolium MTT salt (3-(4,5-dimethylthiazol-2-yl)-2,5-diphenyl tetrazolium bromide), when it is reduced by the mitochondrial succinate dehydrogenase of active live cells, forms a blue-violet formazan product. The medium then changes from yellow to blue-violet. The intensity of this coloration at 590 nm is proportional to the number of live cells present during the test and gives an indication of the metabolic activity of these cells.
(§7) Table 1 gives the concentration values for 50% inhibition of proliferation (IC50) for compounds 4.2a and 5.6d on lines derived from bowel cancer (CaCo2), skin cancer (A431, MDAMB-435, B16F10), breast cancer (MDAMB-431), […] (HuH7), prostate cancer (DU145) and brain cancer (SNB75, Gli4, Gli7).

[11] = tested on: DU145; assay: MTT antiproliferative test, DU145; format: cell-based; details: Homo sapiens, DU-145, read-out: IC50, inhibition of proliferation
Procedure: as §6, §7

[12] = tested on: Gli7; assay: MTT antiproliferative test, Gli7; format: cell-based; details: Homo sapiens, read-out: IC50, inhibition of proliferation
Procedure: as §5

[13] = tested on: HuH7; assay: MTT antiproliferative test, HuH7; format: cell-based; details: Homo sapiens, Huh-7, read-out: IC50, inhibition of proliferation
Procedure: as §6, §7

[14] = tested on: B16F10; assay: MTT antiproliferative test, B16F10; format: cell-based; details: Mus musculus, B16-F10, read-out: IC50, inhibition of proliferation
Procedure: as §6, §7

[15] = tested on: SNB75 glioblastoma line; assay: MTT antiproliferative test, SNB75; format: cell-based; details: Homo sapiens, SNB-75, read-out: IC50, inhibition of proliferation
Procedure: as §5

[16] = tested on: GLi4; assay: MTT antiproliferative test, Gli4; format: cell-based; details: Homo sapiens, read-out: IC50, inhibition of proliferation
Procedure: as §5

[17] = tested on: A431 line; assay: MTT antiproliferative test, A431; format: cell-based, human; details: A-431, read-out: IC50, inhibition of proliferation
Procedure: as §6, §7

[18] = tested on: MDAMB-231; assay: MTT antiproliferative test, MDAMB-231; format: cell-based; details: Homo sapiens, MDA-MB-231, read-out: IC50, inhibition of proliferation
Procedure: as §6, §7

[19] = tested on: MDAMB-435 melanoma line; assay: MTT antiproliferative test, MDAMB-435; format: cell-based; details: Homo sapiens, MDA-MB-435, 72 hours, read-out: IC50, inhibition of proliferation
Procedure: as §6, §7

[20] = tested on: epidermoid cancer line A431; assay: Boyden chamber migration test, A431; format: cell-based, human; details: for Ki: 24 hours, read-out: Inhibition constant Ki, migration
Procedure: as §1, §2, §3, §4

[21] = 10 and 5 mg/kg i.v. (groups B and C), three injections per week for four weeks

O=[P@@]1(c2ccccc2)O[C@H](COCc2ccccc2)[C@@H](OCc2ccccc2)[C@H](OCc2ccccc2)[C@H]1O [Compound 3.48a, 4,5-bis-benzyloxy-6-benzyloxymethyl-2-phenyl-2-oxo-2λ^5-[1,2]oxaphosphinan-3-ol]
Mortality, acute toxicity [1]: No mortality was observed
Ki ([2]; support Fibronectin): 1 nM
Ki ([2]; support Laminin): 11 nM
Ki ([2]; support Vitronectin): 5 nM
IC50 ([3]; Homo sapiens, SNB-75, SNB75 line, on fibronectin or vitronectin, read-out: Concentration for a 50% decrease in migration of the cancer cells): 1 to 100 nM
Ki ([3]; support Fibronectin): 27 nM
Ki ([3]; support Laminin): 23000 nM
Ki ([3]; support Vitronectin): 87 nM
Complexation in cyclodextrins [4]: non-complexible in cyclodextrins
Solubility ([4]; water, water-soluble solvents): insoluble in water, in numerous water-soluble solvents
Ki ([5]; support Fibronectin): 37 nM
Ki ([5]; support Laminin): 310 nM
Ki ([5]; support Vitronectin): 371 nM
Inhibition of cell migration [6]: inhibits the cell migration
Cell migration in brain during treatment ([7]; 10 mg/kg, three injections per week, four-week treatment (formulation 1)): made it possible to inhibit cell migration
Cell growth and migration after stopping the treatment ([7]; final six weeks after the four-week treatment at 10 mg/kg): resumption of the growth and migration of the cells was observed
Mortality [8, 21]: none of the mice died
Weight loss [8, 21]: no weight loss was observed
Growth of the primary tumor ([8]; 10 and 5 mg/kg i.v. (groups B and C), three injections per week, after four weeks, vs control groups): a very great reduction in the growth of the primary tumor
Development of metastases ([8]; 10 and 5 mg/kg i.v. (groups B and C), controls all developed metastases in liver and intestine): None of the mice treated with compound 3.48a (groups B and C) developed metastases
Metastases in the liver (FIG. 1A) ([8]; a mouse from group B (10 mg/kg), eight weeks after implantation): absence of metastases in the liver

CC(=O)N[C@@H]1[C@H]2OC(C)(C)O[C@H]2[C@@H]([C@H]2COC(C)(C)O2)O[P@@]1(=O)c1ccccc1 [Compound 5.6d]
IC50 [9]: 650 nM
IC50 [10]: 36000 nM
IC50 [11]: 31200 nM
IC50 [12]: 500 nM
IC50 [13]: 22000 nM
IC50 [14]: 14900 nM
IC50 [15]: 650 nM
IC50 [16]: 540 nM
IC50 ([17]; A431 line (human epidermoid cancer)): 100 nM
IC50 ([17]; Homo sapiens, A431, 72 hours, MTT): 130 nM
IC50 [18]: 23200 nM
IC50 [19]: 9610 nM
IC50 ([20]; Homo sapiens, A-431, on fibronectin or vitronectin, read-out: Concentration for a 50% decrease in migration of the cancer cells): 10 to 100 nM
Ki ([20]; support Fibronectin): 8 nM
Ki ([20]; support Laminin): 13 nM
Ki ([20]; support Vitronectin): 20 nM

Cn1nnc2c(C(N)=O)ncn2c1=O [temozolomide, reference compound]
Weight loss ([8]; 20 mg/kg i.v. (group D), remaining four mice): substantial weight losses
Mortality ([8]; 20 mg/kg i.v. (group D), seven mice): three of the seven mice died after the third injection
Lethality at higher dose ([8]; dose of 40 mg/kg): leads to the death of the mice before the end of the experimentation period
